From the supplement of paper PMC10307832

Assays:
Test in all cases: relative viability (nuclei count vs DMSO), 5 days (fraction); higher = more cells survive
Erlotinib + Decitabine = compound: C#Cc1cccc(Nc2ncnc3cc(OCCOC)c(OCCOC)cc23)c1 [Erlotinib] + Nc1ncn([C@H]2C[C@H](O)[C@@H](CO)O2)c(=O)n1 [Decitabine] (partner 2 µM)
In short: (§1)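 Lung cancer cell lines were pin-tool dosed in 1536-well plates on the day after seeding, with either a lone drug or a fixed anchor-drug dose plus five library-drug doses (not always all listed) in √10 steps. Nuclei were counted on 4× images after 5 days. Relative viability is the ratio of treated-well to vehicle-well nuclei counts, with each value a median of duplicate plates.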

AT9283 + Navitoclax = compound: O=C(Nc1c[nH]nc1-c1nc2ccc(CN3CCOCC3)cc2[nH]1)NC1CC1 [AT9283] + CC1(C)CCC(c2ccc(Cl)cc2)=C(CN2CCN(c3ccc(C(=O)NS(=O)(=O)c4ccc(N[C@H](CCN5CCOCC5)CSc5ccccc5)c(S(=O)(=O)C(F)(F)F)c4)cc3)CC2)C1 [Navitoclax] (partner 0.5 µM)
In short: as §1

AT9283 + Pictilisib = compound: O=C(Nc1c[nH]nc1-c1nc2ccc(CN3CCOCC3)cc2[nH]1)NC1CC1 [AT9283] + CS(=O)(=O)N1CCN(Cc2cc3nc(-c4cccc5[nH]ncc45)nc(N4CCOCC4)c3s2)CC1 [Pictilisib] (partner 1 µM)
In short: as §1

AT9283 + AZD7762 = compound: O=C(Nc1c[nH]nc1-c1nc2ccc(CN3CCOCC3)cc2[nH]1)NC1CC1 [AT9283] + NC(=O)Nc1cc(-c2cccc(F)c2)sc1C(=O)N[C@H]1CCCNC1 [AZD7762] (partner 0.2 µM)
In short: as §1

AT9283 + Vorinostat = compound: O=C(Nc1c[nH]nc1-c1nc2ccc(CN3CCOCC3)cc2[nH]1)NC1CC1 [AT9283] + O=C(CCCCCCC(=O)Nc1ccccc1)NO [Vorinostat] (partner 1 µM)
In short: as §1

Cell Line | relative viability (Erlotinib + Decitabine; first compound 0.02 µM) | relative viability (Erlotinib + Decitabine; first compound 0.2 µM) | relative viability (Erlotinib + Decitabine; first compound 0.6325 µM) | relative viability (Erlotinib + Decitabine; first compound 2 µM) | relative viability (AT9283 + Navitoclax; first compound 0.003 µM) | relative viability (AT9283 + Navitoclax; first compound 0.03 µM) | relative viability (AT9283 + Navitoclax; first compound 0.09487 µM) | relative viability (AT9283 + Navitoclax; first compound 0.3 µM) | relative viability (AT9283 + Pictilisib; first compound 0.003 µM) | relative viability (AT9283 + Pictilisib; first compound 0.03 µM) | relative viability (AT9283 + Pictilisib; first compound 0.09487 µM) | relative viability (AT9283 + Pictilisib; first compound 0.3 µM) | relative viability (AT9283 + AZD7762; first compound 0.003 µM) | relative viability (AT9283 + AZD7762; first compound 0.03 µM) | relative viability (AT9283 + AZD7762; first compound 0.09487 µM) | relative viability (AT9283 + AZD7762; first compound 0.3 µM) | relative viability (AT9283 + Vorinostat; first compound 0.003 µM) | relative viability (AT9283 + Vorinostat; first compound 0.03 µM) | relative viability (AT9283 + Vorinostat; first compound 0.09487 µM) | relative viability (AT9283 + Vorinostat; first compound 0.3 µM)
NCI-H1437 | 0.575 | 0.57 | 0.598 | 0.514 | 1.17 | 0.832 | 0.265 | 0.178 | 0.439 | 0.468 | 0.12 | 0.126 | 1.11 | 0.98 | 0.431 | 0.291 | 0.833 | 0.469 | 0.312 | 0.295
HCC-44 | 1 | 0.972 |  | 1 | 0.897 | 0.787 | 0.823 | 0.257 | 0.598 | 0.627 | 0.151 | 0.123 | 1.04 | 1.05 | 1.02 | 0.971 | 1.07 | 1.05 | 0.571 | 0.567
NCI-H23 | 0.312 | 0.293 | 0.324 | 0.337 | 0.741 | 0.538 | 0.423 | 0.174 | 0.457 | 0.267 | 0.213 | 0.153 | 0.265 | 0.295 | 0.179 | 0.128 | 0.523 | 0.363 | 0.183 | 0.177
ChaGo-K-1 | 0.528 | 0.51 | 0.496 | 0.518 | 0.694 | 0.746 | 0.244 | 0.299 | 0.357 | 0.511 | 0.179 | 0.233 | 0.88 | 0.685 | 0.404 | 0.222 | 0.662 | 0.447 | 0.325 | 0.216
NCI-H1915 | 0.288 | 0.266 | 0.272 | 0.269 | 0.657 | 0.72 | 0.504 | 0.174 | 0.854 | 0.95 | 0.293 | 0.178 | 0.617 | 0.548 | 0.334 | 0.222 | 0.489 | 0.466 | 0.175 | 0.152
LU99A |  | 0.92 | 0.983 | 0.765 | 0.766 | 0.243 | 0.142 | 0.151 | 0.293 | 0.185 | 0.152 | 0.164 | 0.457 | 0.137 | 0.139 | 0.148 | 0.457 | 0.253 | 0.228 | 0.15
RERF-LC-KJ | 0.638 | 0.62 | 0.649 | 0.582 | 0.834 | 0.554 | 0.223 | 0.217 | 0.627 | 0.24 | 0.171 | 0.164 | 0.836 | 0.578 | 0.387 | 0.243 | 0.636 | 0.473 | 0.346 | 0.264
NCI-H1755 | 0.725 | 0.75 | 0.741 | 0.764 | 0.988 | 0.876 | 0.482 | 0.281 | 0.437 | 0.395 | 0.296 | 0.261 | 0.466 | 0.401 | 0.326 | 0.267 | 0.74 | 0.784 | 0.54 | 0.398
